Numbers after ± are expanded uncertainties.
How the values were obtained:
[1] = Molar enthalpy of transition or fusion; settings: Crystal; DSC
[2] = Crystal; DSC

Molar enthalpy of transition or fusion [1]: 3.64 ± 0.167 kcal/mol
Triple point temperature [2]: 369.26 ± 1.2 K
SMILES: c1ccc2[nH]nnc2c1 [benzotriazole]
